According to ChEMBL document CHEMBL4196044, “Design, synthesis and ability of non-gold complexed substituted purine derivatives to inhibit LPS-induced inflammatory response” (Eur J Med Chem, 2018):
The source made the active and inactive calls. The calls are words filed in the database; no cut-off is given here.

Columns and labels:
[1] = Cytotoxicity against human THP1 cells assessed as cell viability at 10 uM by CellTiter-Glo luminescent assay relative to control; format: cell-based; conditions: THP-1 cells, read-out: Activity
RAW264.7 [2] = test: Anti-inflammatory activity in mouse RAW264.7 cells assessed as inhibition of LPS-induced TNF-alpha production at 10 uM pretreated for 2 hrs followed by LPS stimulation measured after over night incubation by ELISA relative to control; format: functional
RAW264.7 [3] = test: Anti-inflammatory activity in mouse RAW264.7 cells assessed as inhibition of LPS-induced IL-1beta production at 10 uM pretreated for 2 hrs followed by LPS stimulation measured after over night incubation by ELISA relative to control; format: functional
RAW264.7 [4] = test: Anti-inflammatory activity in mouse RAW264.7 cells assessed as inhibition of LPS-induced TNF-alpha production pretreated for 2 hrs followed by LPS stimulation measured after over night incubation by ELISA; format: functional, cell-based
RAW264.7 [5] = test: Anti-inflammatory activity in mouse RAW264.7 cells assessed as inhibition of LPS-induced IL-1beta production pretreated for 2 hrs followed by LPS stimulation measured after over night incubation by ELISA; format: functional, cell-based
RAW264.7 [6] = test: Anti-inflammatory activity in mouse RAW264.7 cells assessed as inhibition of LPS-induced IL-6 production pretreated for 2 hrs followed by LPS stimulation measured after over night incubation by ELISA; format: functional, cell-based
RAW264.7 [7] = test: Anti-inflammatory activity in mouse RAW264.7 cells assessed as inhibition of LPS-induced PGE2 production pretreated for 2 hrs followed by LPS stimulation measured after over night incubation by ELISA; format: functional, cell-based
RAW264.7 [8] = test: Anti-inflammatory activity in mouse RAW264.7 cells assessed as inhibition of LPS-induced NO release pretreated for 2 hrs followed by LPS stimulation measured after 48 hrs […]; format: functional, cell-based
RAW264.7 [9] = test: Anti-inflammatory activity in mouse RAW264.7 cells assessed as inhibition of LPS-induced COX-2 mRNA expression at 10 uM after 24 hrs by RT-qPCR analysis; format: functional, cell-based
RAW264.7 [10] = test: Anti-inflammatory activity in mouse RAW264.7 cells assessed as inhibition of LPS-induced iNOS mRNA expression at 10 uM after 24 hrs by RT-qPCR analysis; format: functional, cell-based
RAW264.7 [11] = test: Inhibition of LPS-induced ERK phosphorylation in mouse RAW264.7 cells at 10 uM measured after 24 hrs by Western blot method; format: cell-based
[12] = target: MAP kinase p38 (Mus musculus) (UniProt P47811+O08911+Q9WUI1+Q9Z1B7); test: Inhibition of LPS-induced p38 phosphorylation in mouse RAW264.7 cells at 10 uM measured after 24 hrs by Western blot method; format: cell-based
RAW264.7 [13] = test: Inhibition of LPS-induced JNK phosphorylation in mouse RAW264.7 cells at 10 uM measured after 24 hrs by Western blot method; format: cell-based
[14] = target: T1, NF-kappa-B inhibitor alpha (Mus musculus) (UniProt Q9Z1E3); test: Inhibition of LPS-induced IkappaBalpha phosphorylation in mouse RAW264.7 cells at 10 uM measured after 24 hrs by Western blot method; format: cell-based
T1 sequence (whole entry): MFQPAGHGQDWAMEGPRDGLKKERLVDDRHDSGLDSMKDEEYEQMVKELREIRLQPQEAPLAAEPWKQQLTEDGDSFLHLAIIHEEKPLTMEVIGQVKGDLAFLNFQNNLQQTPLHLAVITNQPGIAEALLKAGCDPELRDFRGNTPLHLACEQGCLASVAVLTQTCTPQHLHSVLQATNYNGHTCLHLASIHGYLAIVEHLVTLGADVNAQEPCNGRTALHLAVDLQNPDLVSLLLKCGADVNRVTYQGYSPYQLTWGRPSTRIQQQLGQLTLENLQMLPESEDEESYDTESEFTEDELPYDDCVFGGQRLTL

[15] = target: Transcription factor p65 (Mus musculus) (UniProt Q04207); test: Inhibition of LPS-induced NF-kappaB-p65 nuclear translocation in mouse RAW264.7 cells at 10 uM by DAPI staining-based immunofluorescence analysis; format: cell-based
Mus musculus [16] = test: Anti-inflammatory activity in ICR mouse assessed as inhibition of carrageenan-induced hind paw edema volume at 10 mg/kg administered via gavage treated for 30 mins post carrageenan challenge measured after 2 to 3 hrs; format: functional, organism-based
Mus musculus [17] = test: Anti-inflammatory activity in ICR mouse assessed as inhibition of carrageenan-induced hind paw edema volume at 10 mg/kg administered via gavage treated for 30 mins post carrageenan challenge measured after 3 to 5 hrs; format: functional, organism-based
Mus musculus [18] = test: Anti-inflammatory activity in ICR mouse assessed as inhibition of carrageenan-induced hind paw edema volume at 10 mg/kg administered via gavage treated for 30 mins post carrageenan challenge measured after 2 to 5 hrs; format: functional, organism-based

Chain of Transcription factor p65 (Mus musculus) (Q04207 whole entry): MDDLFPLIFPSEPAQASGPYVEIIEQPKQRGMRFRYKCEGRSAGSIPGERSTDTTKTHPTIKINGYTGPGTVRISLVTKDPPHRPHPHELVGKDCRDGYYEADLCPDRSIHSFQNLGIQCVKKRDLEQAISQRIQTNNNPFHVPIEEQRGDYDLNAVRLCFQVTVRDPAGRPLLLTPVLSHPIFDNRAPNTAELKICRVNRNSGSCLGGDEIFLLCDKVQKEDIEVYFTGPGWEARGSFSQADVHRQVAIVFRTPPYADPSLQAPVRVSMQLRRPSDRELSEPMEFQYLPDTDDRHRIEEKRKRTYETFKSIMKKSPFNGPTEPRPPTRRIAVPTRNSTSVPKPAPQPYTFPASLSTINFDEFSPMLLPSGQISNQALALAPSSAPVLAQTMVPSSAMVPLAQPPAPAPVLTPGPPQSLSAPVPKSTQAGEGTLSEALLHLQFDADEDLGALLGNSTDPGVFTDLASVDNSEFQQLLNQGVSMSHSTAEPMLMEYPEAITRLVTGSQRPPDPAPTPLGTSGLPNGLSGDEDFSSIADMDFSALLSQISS

Q: With `COc1ccc(Nc2ncnc3[nH]cnc23)cc1` as the compound, how does the viability at 10 µM [1] read?
A: 100%

Q: What about the inhibition at 10 µM (RAW264.7 [2]) of the same compound?
A: 25.6%

Q: And the inhibition at 10 µM (RAW264.7 [3])?
A: 7.29%

Q: Which viability at 10 µM [1] does the source give for `CC(=O)NS(=O)(=O)c1ccc(Nc2ncnc3[nH]cnc23)cc1` here?
A: 90.7%

Q: What about the inhibition at 10 µM (RAW264.7 [2]) of the same compound?
A: 12.4%

Q: What about the inhibition at 10 µM (RAW264.7 [3]) of the same compound?
A: 16.1%

Q: With `Fc1cc(Nc2ncnc3[nH]cnc23)ccc1Cl` as the compound, how does the viability at 10 µM [1] read?
A: 99.3%

Q: What about the inhibition at 10 µM (RAW264.7 [2]) of the same compound?
A: 71%

Q: What about the inhibition at 10 µM (RAW264.7 [3]) of the same compound?
A: 84.2%

Q: And the inhibition (RAW264.7 [4])?
A: Dose-dependent effect

Q: And the inhibition (RAW264.7 [5])?
A: Dose-dependent effect

Q: And the inhibition (RAW264.7 [6])?
A: Dose-dependent effect

Q: What about the inhibition (RAW264.7 [7]) of the same compound?
A: Dose-dependent effect

Q: What about the IC50 (RAW264.7 [8]) of the same compound?
A: 4.43 µM

Q: And the inhibition (RAW264.7 [9])?
A: Active

Q: And the inhibition (RAW264.7 [10])?
A: Active

Q: What about the inhibition (RAW264.7 [11]) of the same compound?
A: Active

Q: And the inhibition [12]?
A: Active

Q: What about the inhibition (RAW264.7 [13]) of the same compound?
A: Active

Q: What about the inhibition [14] of the same compound?
A: Active

Q: What about the inhibition [15] of the same compound?
A: Active

Q: What about the inhibition (Mus musculus [16]) of the same compound?
A: Active

Q: What about the inhibition (Mus musculus [17]) of the same compound?
A: Active

Q: Which results are given for `COc1cc(Cn2cnc3c(NCc4ccccc4Cl)ncnc32)cc(OC)c1`?
A: viability at 10 µM [1]: 90.2%; inhibition at 10 µM (RAW264.7 [2]): 9.65%; inhibition at 10 µM (RAW264.7 [3]): 19.8%

Q: Which viability at 10 µM [1] does the source give for `Clc1cccc(Nc2ncnc3[nH]cnc23)c1` here?
A: 91%

Q: And the inhibition at 10 µM (RAW264.7 [2])?
A: 18.5%

Q: What about the inhibition at 10 µM (RAW264.7 [3]) of the same compound?
A: 12.2%

Q: For `Clc1ccccc1CNc1ncnc2nc[nH]c12`, which viability at 10 µM [1] is on record?
A: 93.8%

Q: Which viability at 10 µM [1] does the source give for `Oc1ccc(Nc2ncnc3[nH]cnc23)cc1` here?
A: 95.9%

Q: What about the inhibition at 10 µM (RAW264.7 [2]) of the same compound?
A: 18.5%

Q: What about the inhibition at 10 µM (RAW264.7 [3]) of the same compound?
A: 12.4%

Q: For `CCCn1cnc2c(NCc3ccccc3Cl)ncnc21`, which viability at 10 µM [1] is on record?
A: 103%

Q: And the inhibition at 10 µM (RAW264.7 [2])?
A: 22.4%

Q: And the inhibition at 10 µM (RAW264.7 [3])?
A: 14.1%

Q: For `Clc1ccc(Nc2ncnc3[nH]cnc23)cc1`, which viability at 10 µM [1] is on record?
A: 92%

Q: And the inhibition at 10 µM (RAW264.7 [2])?
A: 16.1%

Q: What about the inhibition at 10 µM (RAW264.7 [3]) of the same compound?
A: 28.6%

Q: Which viability at 10 µM [1] does the source give for `Fc1ccc(CNc2ncnc3nc[nH]c23)cc1` here?
A: 92.9%

Q: And the inhibition at 10 µM (RAW264.7 [2])?
A: 22.4%

Q: And the inhibition at 10 µM (RAW264.7 [3])?
A: 14.6%

Q: For `Clc1ccccc1CNc1[nH]cnc2ncnc1-2`, which inhibition at 10 µM (RAW264.7 [2]) is on record?
A: 86.2%

Q: And the inhibition at 10 µM (RAW264.7 [3])?
A: 89%

Q: What about the inhibition (RAW264.7 [4]) of the same compound?
A: Dose-dependent effect

Q: And the inhibition (RAW264.7 [5])?
A: Dose-dependent effect

Q: What about the inhibition (RAW264.7 [6]) of the same compound?
A: Dose-dependent effect

Q: What about the inhibition (RAW264.7 [7]) of the same compound?
A: Dose-dependent effect

Q: What about the IC50 (RAW264.7 [8]) of the same compound?
A: 3.54 µM

Q: And the inhibition (RAW264.7 [9])?
A: Active

Q: And the inhibition (RAW264.7 [10])?
A: Active

Q: What about the inhibition (RAW264.7 [11]) of the same compound?
A: Active

Q: What about the inhibition [12] of the same compound?
A: Active

Q: And the inhibition (RAW264.7 [13])?
A: Active

Q: What about the inhibition [14] of the same compound?
A: Active

Q: What about the inhibition [15] of the same compound?
A: Active

Q: And the inhibition (Mus musculus [16])?
A: Active

Q: And the inhibition (Mus musculus [18])?
A: Active

Q: Which results are given for `c1nc2nc[nH]c(N3CCCC3)c-2n1`?
A: viability at 10 µM [1]: 91.1%; inhibition at 10 µM (RAW264.7 [2]): 11.7%; inhibition at 10 µM (RAW264.7 [3]): -9.43%

Q: What does the source list for `COc1cccc(Nc2ncnc3[nH]cnc23)c1`?
A: viability at 10 µM [1]: 90.7%; inhibition at 10 µM (RAW264.7 [2]): 69.8%; inhibition at 10 µM (RAW264.7 [3]): 88.9%; inhibition (RAW264.7 [4]): Dose-dependent effect; inhibition (RAW264.7 [5]): Dose-dependent effect; inhibition (RAW264.7 [6]): Dose-dependent effect; inhibition (RAW264.7 [7]): Dose-dependent effect; IC50 (RAW264.7 [8]): 3.38 µM; inhibition (RAW264.7 [9]): Active; inhibition (RAW264.7 [10]): Active; inhibition (RAW264.7 [11]): Active; inhibition [12]: Active; inhibition (RAW264.7 [13]): Active; inhibition [14]: Active; inhibition [15]: Active; inhibition (Mus musculus [16]): Active

Q: Which viability at 10 µM [1] does the source give for `c1coc(CNc2ncnc3[nH]cnc23)c1` [KINETIN] here?
A: 107%

Q: What about the inhibition at 10 µM (RAW264.7 [2]) of the same compound?
A: 45.9%

Q: What about the inhibition at 10 µM (RAW264.7 [3]) of the same compound?
A: -19.5%
